Measured values reported in patent publication US20160031925A1, “AZITHROMYCIN ANTIMICROBIAL DERIVATIVES WITH NON-ANTIBIOTIC PHARMACEUTICAL EFFECT” (priority 2013, published 2016).
Where two headings read alike, the source gives them in different places.

Legend:
Format in all cases: cell-based
[1] = tested on: Klebsiella pneumonia ATCC 35657; assay: Antimicrobial disk susceptibility test (CLSI M2-A9), K. pneumonia
Protocol: (§1) Test for the antimicrobial activity of the novel compounds may be performed according to the standards of Clinical and Laboratory Standards Institute, Performance Standards for Antimicrobial Disk Susceptibility Tests; approved Standard; M2-A), vol. 26 NO. 1 9th ed.
(§2) A test for the antimicrobial activity of the novel compounds were performed according to the standards of Clinical and Laboratory Standards Institute, Performance Standards for Antimicrobial Disk Susceptibility Tests; approved Standard; M2-A), vol. 26 NO. 1 9th ed. The samples were dissolved in 10 ml of sterile Milli-Q water by magnetic stirring overnight at 20° C.
(§3) Two doses of the samples were tested in duplicate, a) and b). The size of the inhibition zones were measured in mm after incubation.

[2] = tested on: Escherichia coli ATCC 8739; assay: Antimicrobial disk susceptibility test (CLSI M2-A9), E. coli
Protocol: as §1, §2, §3

[3] = tested on: Pseudomonas aeruginosa ATCC 9027; assay: Antimicrobial disk susceptibility test (CLSI M2-A9), P. aeruginosa
Protocol: as §1, §2, §3

[4] = tested on: Staphylococcus aureus ATTC 6538; assay: Antimicrobial disk susceptibility test (CLSI M2-A9), S. aureus
Protocol: as §1, §2, §3

[5] = Klebsiella pneumoniae, ATCC35657; 5 μg/disk, duplicate a); read-out: size of the inhibition zone, K. pneumonia a)
[6] = Klebsiella pneumoniae, ATCC35657; 5 μg/disk, duplicate b); read-out: size of the inhibition zone, K. pneumonia b)
[7] = Klebsiella pneumoniae, ATCC35657; 10 μg/disk, duplicate a); read-out: size of the inhibition zone, K. pneumonia a)
[8] = Klebsiella pneumoniae, ATCC35657; 10 μg/disk, duplicate b); read-out: size of the inhibition zone, K. pneumonia b)
[9] = Escherichia coli, ATCC8739; 5 μg/disk, duplicate a); read-out: size of the inhibition zone, E. coli a)
[10] = Escherichia coli, ATCC8739; 5 μg/disk, duplicate b); read-out: size of the inhibition zone, E. coli b)
[11] = Escherichia coli, ATCC8739; 10 μg/disk, duplicate a); read-out: size of the inhibition zone, E. coli a)
[12] = Escherichia coli, ATCC8739; 10 μg/disk, duplicate b); read-out: size of the inhibition zone, E. coli b)
[13] = Pseudomonas aeruginosa, ATCC9027; 5 μg/disk, duplicate a); read-out: size of the inhibition zone, P. aeruginosa a)
[14] = Pseudomonas aeruginosa, ATCC9027; 5 μg/disk, duplicate b); read-out: size of the inhibition zone, P. aeruginosa b)
[15] = Pseudomonas aeruginosa, ATCC9027; 10 μg/disk, duplicate a); read-out: size of the inhibition zone, P. aeruginosa a)
[16] = Pseudomonas aeruginosa, ATCC9027; 10 μg/disk, duplicate b); read-out: size of the inhibition zone, P. aeruginosa b)
[17] = Staphylococcus aureus, ATTC6538; 5 μg/disk, duplicate a); read-out: size of the inhibition zone, S. aureus a)
[18] = Staphylococcus aureus, ATTC6538; 5 μg/disk, duplicate b); read-out: size of the inhibition zone, S. aureus b)
[19] = Staphylococcus aureus, ATTC6538; 10 μg/disk, duplicate a); read-out: size of the inhibition zone, S. aureus a)
[20] = Staphylococcus aureus, ATTC6538; 10 μg/disk, duplicate b); read-out: size of the inhibition zone, S. aureus b)
[21] = 10 μg/disk, one value per organism (reference)

Row | Molecule | zone of inhibition at 5 µg/disc [1, 5] [mm] | zone of inhibition at 5 µg/disc [1, 6] [mm] | zone of inhibition at 10 µg/disc [1, 7] [mm] | zone of inhibition at 10 µg/disc [1, 8] [mm] | zone of inhibition at 5 µg/disc [2, 9] [mm] | zone of inhibition at 5 µg/disc [2, 10] [mm] | zone of inhibition at 10 µg/disc [2, 11] [mm] | zone of inhibition at 10 µg/disc [2, 12] [mm] | zone of inhibition at 5 µg/disc [3, 13] [mm] | zone of inhibition at 5 µg/disc [3, 14] [mm] | zone of inhibition at 10 µg/disc [3, 15] [mm] | zone of inhibition at 10 µg/disc [3, 16] [mm] | zone of inhibition at 5 µg/disc [4, 17] [mm] | zone of inhibition at 5 µg/disc [4, 18] [mm] | zone of inhibition at 10 µg/disc [4, 19] [mm] | zone of inhibition at 10 µg/disc [4, 20] [mm] | size of the inhibition zone, K. pneumonia a) ([1]; 5 μg/disk, duplicate a)) [mm] | size of the inhibition zone, K. pneumonia b) ([1]; 5 μg/disk, duplicate b)) [mm] | size of the inhibition zone, K. pneumonia a) ([1]; 10 μg/disk, duplicate a)) [mm] | size of the inhibition zone, K. pneumonia b) ([1]; 10 μg/disk, duplicate b)) [mm] | further results
1 | CC[C@H]1OC(=O)[C@H](C)C(O[C@H]2C[C@@](C)(OC)[C@@H](C)[C@H](C)O2)[C@H](C)[C@@H](OC2O[C@H](C)C[C@H](N(C)C)[C@H]2O)[C@](C)(O)C[C@@H](C)CN(C)[C@H](C)[C@@H](O)[C@]1(C)O (some centres unmarked) [PP002] | < 1 | < 1 | < 1 | < 1 | < 1 | < 1 | < 1 | < 1 | < 1 | < 1 | < 1 | < 1 | < 1 | < 1 | < 1 | < 1 | – | – | – | – | –
2 | Gentamicin [reference compound] | – | – | – | – | – | – | – | – | – | – | – | – | – | – | – | – | – | – | – | – | size of the inhibition zone, K. pneumonia [1, 21]: 24.7 mm; size of the inhibition zone, E. coli [2, 21]: 27.9 mm; size of the inhibition zone, P. aeruginosa [3, 21]: 27.2 mm; size of the inhibition zone, S. aureus [4, 21]: 30.4 mm
3 | CC[C@H]1OC(=O)[C@H](C)C(O[C@H]2C[C@@](C)(OC)[C@@H](O)[C@H](C)O2)[C@H](C)[C@@H](OC2O[C@H](C)C[C@H](N(C)C)[C@H]2C)[C@](C)(O)C[C@@H](C)CN(C)[C@H](C)[C@@H](O)[C@]1(C)O (some centres unmarked) [PP001] | < 1 | < 1 | < 1 | < 1 | < 1 | < 1 | < 1 | < 1 | < 1 | < 1 | < 1 | < 1 | < 1 | < 1 | < 1 | < 1 | – | – | – | – | –
4 | CCC1OC(=O)C(C)C(OC2CC(C)(OC)CC(C)O2)C(C)C(OC2CC(N(C)C)CC(C)O2)C(C)(O)CC(C)CN(C)C(C)C(O)C1(C)O (centres unmarked) [PP006] | – | – | – | – | – | – | – | – | – | – | – | – | – | – | – | – | <1 | <1 | <1 | <1 | size of the inhibition zone, E. coli a) ([2]; 5 μg/disk, duplicate a)): <1 mm; size of the inhibition zone, E. coli b) ([2]; 5 μg/disk, duplicate b)): <1 mm; size of the inhibition zone, E. coli a) ([2]; 10 μg/disk, duplicate a)): <1 mm; size of the inhibition zone, E. coli b) ([2]; 10 μg/disk, duplicate b)): <1 mm; size of the inhibition zone, P. aeruginosa a) ([3]; 5 μg/disk, duplicate a)): <1 mm; size of the inhibition zone, P. aeruginosa b) ([3]; 5 μg/disk, duplicate b)): <1 mm; size of the inhibition zone, P. aeruginosa a) ([3]; 10 μg/disk, duplicate a)): <1 mm; size of the inhibition zone, P. aeruginosa b) ([3]; 10 μg/disk, duplicate b)): <1 mm; size of the inhibition zone, S. aureus a) ([4]; 5 μg/disk, duplicate a)): <1 mm; size of the inhibition zone, S. aureus b) ([4]; 5 μg/disk, duplicate b)): <1 mm; size of the inhibition zone, S. aureus a) ([4]; 10 μg/disk, duplicate a)): <1 mm; size of the inhibition zone, S. aureus b) ([4]; 10 μg/disk, duplicate b)): <1 mm
5 | CCC1OC(=O)C(C)C(OC2CC(C)(OC)C(C)C(C)O2)C(C)C(OC2OC(C)CC(N(C)C)C2C)C(C)(O)CC(C)CN(C)C(C)C(O)C1(C)O (centres unmarked) [PP003] | – | – | – | – | – | – | – | – | – | – | – | – | – | – | – | – | <1 | <1 | <1 | <1 | size of the inhibition zone, E. coli a) ([2]; 5 μg/disk, duplicate a)): <1 mm; size of the inhibition zone, E. coli b) ([2]; 5 μg/disk, duplicate b)): <1 mm; size of the inhibition zone, E. coli a) ([2]; 10 μg/disk, duplicate a)): <1 mm; size of the inhibition zone, E. coli b) ([2]; 10 μg/disk, duplicate b)): <1 mm; size of the inhibition zone, P. aeruginosa a) ([3]; 5 μg/disk, duplicate a)): <1 mm; size of the inhibition zone, P. aeruginosa b) ([3]; 5 μg/disk, duplicate b)): <1 mm; size of the inhibition zone, P. aeruginosa a) ([3]; 10 μg/disk, duplicate a)): <1 mm; size of the inhibition zone, P. aeruginosa b) ([3]; 10 μg/disk, duplicate b)): <1 mm; size of the inhibition zone, S. aureus a) ([4]; 5 μg/disk, duplicate a)): <1 mm; size of the inhibition zone, S. aureus b) ([4]; 5 μg/disk, duplicate b)): <1 mm; size of the inhibition zone, S. aureus a) ([4]; 10 μg/disk, duplicate a)): <1 mm; size of the inhibition zone, S. aureus b) ([4]; 10 μg/disk, duplicate b)): <1 mm
6 | CC[C@H]1OC(=O)[C@H](C)C(O[C@H]2C[C@@](C)(OC)C[C@H](C)O2)[C@H](C)[C@@H](OC2O[C@H](C)C[C@H](N(C)C)[C@H]2O)[C@](C)(O)C[C@@H](C)CN(C)[C@H](C)[C@@H](O)[C@]1(C)O (some centres unmarked) [PP004] | < 1 | < 1 | < 1 | < 1 | < 1 | < 1 | < 1 | < 1 | < 1 | < 1 | < 1 | < 1 | < 1 | < 1 | < 1 | < 1 | – | – | – | – | –
7 | CC[C@H]1OC(=O)[C@H](C)C(O[C@H]2C[C@@](C)(OC)[C@@H](O)[C@H](C)O2)[C@H](C)[C@@H](OC2C[C@@H](N(C)C)C[C@@H](C)O2)[C@](C)(O)C[C@@H](C)CN(C)[C@H](C)[C@@H](O)[C@]1(C)O (some centres unmarked) [PP005] | < 1 | < 1 | < 1 | < 1 | < 1 | < 1 | < 1 | < 1 | < 1 | < 1 | < 1 | < 1 | < 1 | < 1 | < 1 | < 1 | – | – | – | – | –
8 | CCC1OC(=O)C(C)C(OC2CC(C)(OC)C(C)C(C)O2)C(C)C(OC2CC(N(C)C)CC(C)O2)C(C)(O)CC(C)CN(C)C(C)C(O)C1(C)O (centres unmarked) [PP008] | – | – | – | – | – | – | – | – | – | – | – | – | – | – | – | – | <1 | <1 | <1 | <1 | size of the inhibition zone, E. coli a) ([2]; 5 μg/disk, duplicate a)): <1 mm; size of the inhibition zone, E. coli b) ([2]; 5 μg/disk, duplicate b)): <1 mm; size of the inhibition zone, E. coli a) ([2]; 10 μg/disk, duplicate a)): <1 mm; size of the inhibition zone, E. coli b) ([2]; 10 μg/disk, duplicate b)): <1 mm; size of the inhibition zone, P. aeruginosa a) ([3]; 5 μg/disk, duplicate a)): <1 mm; size of the inhibition zone, P. aeruginosa b) ([3]; 5 μg/disk, duplicate b)): <1 mm; size of the inhibition zone, P. aeruginosa a) ([3]; 10 μg/disk, duplicate a)): <1 mm; size of the inhibition zone, P. aeruginosa b) ([3]; 10 μg/disk, duplicate b)): <1 mm; size of the inhibition zone, S. aureus a) ([4]; 5 μg/disk, duplicate a)): <1 mm; size of the inhibition zone, S. aureus b) ([4]; 5 μg/disk, duplicate b)): <1 mm; size of the inhibition zone, S. aureus a) ([4]; 10 μg/disk, duplicate a)): <1 mm; size of the inhibition zone, S. aureus b) ([4]; 10 μg/disk, duplicate b)): <1 mm
